According to patent US20240342186A1, “PYRIDINE DERIVATIVES WITH N-LINKED CYCLIC SUBSTITUENTS AS cGAS INHIBITORS” (Boehringer Ingelheim International GmbH, priority 2021, published 2024):

Key:
[1] = test system: cellular cGAS activity in baculovirus-stimulated THP1-Dual cells (IRF dependent Lucia luciferase reporter); experiment: Human cGAS cell assay: inhibition of IFN induction in virus-stimulated THP1 cells (THP1(vir) IC50); assay type: cell-based; conditions: Homo sapiens, THP1-Dual; inhibition of IFN induction in virus-stimulated THP1 cells; read-out: THP1(vir) IC50
Text: (§1) 6.2 Method: Human cGAS Cell Assay and cGAMP Stimulated Counter Cell Assay (THP1(vir) IC50 and THP1(cGAMP) IC50)
(§2) THP1-Dual™ cells (InvivoGen #thpd-nfis) expressing IRF dependent Lucia luciferase reporter were used as basis for both assays. For the detection of cellular cGAS activity cells were stimulated by a baculovirus (pFastbac-1, Invitrogen, no coding insert) infection that delivers the cGAS enzyme stimulating double-stranded DNA (measurement of THP1(vir) IC50).
(§3) For the counter assay, cells were stimulated by cGAMP (SigmaAldrich #SML1232) to activate the identical pathway independent and directly downstream of cGAS (measurement of THP1(cGAMP) IC50). Pathway activity was monitored by measuring the Lucia luciferase activity induced by either DNA stimulated cGAS enzyme activity (measurement of THP1(vir) IC50) or by cGAMP directly (measurement of THP1(cGAMP) IC50, counter assay).
(§4) Compounds were delivered in 10 mM DMSO solution, serially diluted and transferred to the 384 well assay plate (Greiner #781201) using an Echo acoustic dispenser. Typically, 8 concentrations were used with the highest concentration at 10 μM in the final assay volume followed by ˜1:5 dilution steps. DMSO concentration was set to 1% in the final assay volume. The 384 well assay plate contained 21 test compounds (column 1-22), and DMSO in column 23 and 24.
(§5) Cells, cultivated according to manufacturer conditions, were harvested by centrifugation at 300 g/10 min and were then resuspended and diluted to 1.66E5 cells/ml in fresh cell culture medium (RPMI 1640 (Gibco #A10491-01), 10% FCS (Gibco #10500), 1× GlutaMax (Gibco #35050-061), 1× Pen/Strep solution (Gibco #15140-122), 100 μg/ml Normocin (InvivoGen #ant-nr), 100 μg/ml Zeocin (InvivoGen #ant-zn), 10 μg/ml Blasticidin S (Life Technologies #A11139-03)). The baculovirus solution was then added 1:200 (have varied according to virus batch) to the cells (measurement of THP1(vir) IC50).
(§6) 30 μL of the cell/virus-mix were added to each well of the compound plate from column 1-23 via MultiDrop Combi dispenser (5000 cells/well). In column 24, 30 μl/5000 cells/well without virus were added as a low control.
(§7) The plates were then incubated for 18 h at 37° C. in a humidified incubator.
(§8) Following that, 15 μl of QuantiLuc detection reagent (InvivoGen #rep-qlcg5) were added to each well using a MultiDrop Combi. Measurement was done immediately after the addition using an EnVision reader (US-luminescence read-mode).
(§9) For data evaluation and calculation, the measurement of the low control was set as 0% control and the measurement of the high control was set as 100% control. The IC50 values were calculated using the standard 4 parameter logistic regression formula. Calculation: [y=(a−d)/(1+(x/c)^b)+d], a=low value, d=high value; x=conc M; c=IC50 M; b=slope

[2] = test system: cellular cGAS activity in dsDNA-stimulated human whole blood; experiment: Human whole blood assay (hWB IC50): IFNα2α production after dsDNA transfection; assay type: cell-based; conditions: inhibition of IFN induction in dsDNA-stimulated human whole blood
Experimental: 6.3 Method: Human Whole Blood Assay (Human WB IC50)
For the detection of cellular cGAS activity human whole blood was stimulated by transfection with double stranded DNA. Pathway activity was monitored by measuring the IFNα2α production.
Compounds were delivered as 10 mM DMSO solution and serially diluted and transferred to the 96-well cell culture plate (Corning #3595), prefilled with 20 μl OptiMEM (Gibco, #11058-021) in each well, using an Echo acoustic dispenser. Typically, 8 concentrations were used with the highest concentration at 10 µM in the final assay volume followed by ˜1:5 dilution steps. DMSO concentration was set to 0.1% in the final assay volume. The 96-well assay plate contained 10 test compounds, and DMSO in control wells.
Collection of human whole blood from 3 or more healthy donors (male or female, no medication for 7 days except contraceptive and thyroxine) as Na-Citrate blood (e.g. 3.8% in Monovettes from Sarstedt) was conducted in parallel. Whole blood was kept at room temperature for a maximum of 3 hours after collection until use in the assay.
160 μl of the whole blood samples was transferred to each well of the 96-well assay plates filled with compound/OptiMEM. All assay plates were prepared as duplicates with blood from different donors. Blood plates were kept at room temperature for 60 minutes and continuous shaking with 450 rpm, covered with the lid, but not sealed.
20 μl OptiMEM and 9.6:1 Fugene was added to all low control wells.
After covering assay plates with aera seals and the lid, blood plates were kept at room temperature for 30 minutes and continuous shaking with 450 rpm, followed by an overnight incubation of 22 h at 37° C. in the incubator, without shaking.
For the detection of IFNα-2α in human plasma, the biotinylated capture antibody (Antibody set IFNA2, Meso Scale Diagnostics #B21VH-3, including coating and capture antibody) was diluted 1:17.5 in Diluent 100 (Meso Scale Diagnostics #R^50AA-4), according to the manufacturer's directions. U-Plex MSD GOLD 96-well Small Spot Strepavidin SECTOR Plates (Meso Scale Diagnostics #L45SA-5) were coated with 25 μl diluted capture antibody. Coated plates were incubated for 60 min at room temperature under continuous shaking at 700 rpm. MSD IFNα-2α plates were washed three times with 150 μl wash buffer (1x HBSS, 0.05% Tween).
After blocking the plates with 100 μl block solution/well (1x HBSS with 0.2% Tween, 2% BSA) for 60 min at room temperature and continuous shaking at 700 rpm, plates were emptied as dry as possible by dumping just before continuing with the human plasma.
Whole Blood assay plates were centrifuged at 1600 rpm for 10 minutes. 25 μl of supernatant was transferred with a pipetting robot from each whole blood plate to the corresponding IFNα-2α plate. Plates were sealed with microplate seals and kept at room temperature again under continuous shaking at 700 rpm for two hours.
Next MSD IFNα-2α plates were washed three times with 150 μl wash buffer (1×HBSS, 0.05% Tween), before adding 25 μl MSD SULFO-TAG IFNα-2α Antibody solution (1:100 diluted in Diluent 3 (Meso Scale Diagnostics #R50AP-2) to each well of the plates.
Afterwards plates were sealed with microplate seals and kept at room temperature again under continuous shaking at 700 rpm for two hours. Finally, MSD IFNα-2α plates were washed three times with 150 μl wash buffer (1×HBSS, 0.05% Tween). 150 μl 2× Read buffer was added to each well and plates were immediately measured with the MSD Sector S600 Reader using the vendor barcode.
For data evaluation and calculation, % control calculation of each well was based on the mean of high (DNA stimulated control) and mean of low (unstimulated control) controls by using the following formula:
[counts(sample)−counts(low))/(counts(high)−counts(low))]*100
The IC50 values were calculated using the standard 4 parameter logistic regression formula. Calculation: [y=(a−d)/(1+(x/c)^b)+d], a=low value, d=high value; x=conc M; c=IC50 M; b=slope

cGAS = cGAS (Homo sapiens (Human), UniProt Q8N884); experiment: Human cGAS enzyme assay (hcGAS IC50, in vitro), cGAMP formation by RapidFire MS; assay type: biochemical;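 also: enzyme activated by 45 bp dsDNA with GTP and ATP (30 µM each), 60 min compound pre-incubation then 90 min reaction, cGAMP relative to cyclic-di-GMP internal standard, 8-point dilutions up to 10 µM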
Chain of cGAS (Q8N884 whole entry): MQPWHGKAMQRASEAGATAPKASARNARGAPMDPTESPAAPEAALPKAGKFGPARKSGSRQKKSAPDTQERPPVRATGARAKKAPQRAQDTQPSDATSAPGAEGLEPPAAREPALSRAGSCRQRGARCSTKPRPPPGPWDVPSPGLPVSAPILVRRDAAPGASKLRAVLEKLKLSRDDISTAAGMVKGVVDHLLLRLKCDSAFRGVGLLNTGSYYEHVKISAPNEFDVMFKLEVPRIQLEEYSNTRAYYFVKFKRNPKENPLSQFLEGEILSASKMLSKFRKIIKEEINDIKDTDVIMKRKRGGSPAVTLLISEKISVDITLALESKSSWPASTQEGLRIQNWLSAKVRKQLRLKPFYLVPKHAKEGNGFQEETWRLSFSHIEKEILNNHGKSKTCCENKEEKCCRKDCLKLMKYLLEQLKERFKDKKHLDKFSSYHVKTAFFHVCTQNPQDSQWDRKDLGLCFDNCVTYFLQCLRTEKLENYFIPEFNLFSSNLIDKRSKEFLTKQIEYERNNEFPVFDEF

[3] = test system: cGAMP-stimulated THP1-Dual cells (pathway directly downstream of cGAS); experiment: cGAMP stimulated counter cell assay: inhibition of IFN induction in cGAMP-stimulated THP1 cells (THP1(cGAMP) IC50); assay type: cell-based, human; conditions: for IC50: Homo sapiens, THP1-Dual, inhibition of IFN induction in cGAMP-stimulated THP1 cells, read-out: THP1(cGAMP) IC50 (converted); for Ratio THP1(cGAMP) IC50 / THP1(vir) IC50: selectivity for cGAS inhibition
Text: as §1, §2, §3, §4, §5, §6, §7, §8, §9

[4] = biochemical (in vitro) cGAS inhibition

SMILES | IC50 [1] [nM] | IC50 [2] [nM] | IC50 (cGAS; [4]) [nM] | IC50 [3] [nM] | Ratio THP1(cGAMP) IC50 / THP1(vir) IC50 [3] | IC50 (cGAS; biochemical (in vitro), human cGAS, 45 bp dsDNA, GTP/ATP) [nM]
C[C@@H]1N(c2cc(Cl)cnc2O[C@H]2C[C@@H](C(=O)O)N(c3nc(C(F)F)nc4c3oc3ccccc34)C2)CCOC12COC2 [Example 1.09] | 19 | 19 | 2 | 22100 | 1169 | –
C[C@@H]1N(c2cc(Br)cnc2O[C@H]2C[C@@H](C(=O)O)N(c3nc(C(F)(F)F)nc4c3oc3ccccc34)C2)CCOC12COC2 [Example 1.10, (2S,4S)-4-({5-bromo-3-[(9S)-9-methyl-2,5-dioxa-8-azaspiro[3.5]nonan-8-yl]pyridin-2-yl}oxy)-1-[4-(trifluoromethyl)-8-oxa-3,5-diazatricyclo[7.4.0.0^2,7]trideca-1(9),2(7),3,5,10,12-hexaen-6-yl]pyrrolidine-2-carboxylic acid] | 91 | 33 | – | 16100 | 178 | 5
C#Cc1cnc(O[C@H]2C[C@@H](C(=O)O)N(c3nc(C(F)(F)F)nc4c3oc3ccccc34)C2)c(N2CCOC3(COC3)[C@@H]2C)c1 [Example 1.12] | 7 | 15 | 3 | 11900 | 1769 | –
C[C@@H]1N(c2cc(Cl)cnc2O[C@H]2C[C@@H](C(=O)O)N(c3nc(C(F)(F)F)nc4c3oc3ccccc34)C2)CCOC12COC2 [Example 1.13] | 40 | 102 | 4 | 16400 | 413 | –
C#Cc1cnc(O[C@H]2C[C@@H](C(=O)O)N(c3nc(C(C)(F)F)nc4c3oc3ccccc34)C2)c(N2CCOC3(COC3)[C@@H]2C)c1 [Example 1.14] | 6 | 7 | 3 | > 16600 | >2708 | –
C#Cc1cnc(O[C@H]2C[C@@H](C(=O)O)N(c3nc(C(C)(F)F)nc4c3oc3ccccc34)C2)c(N2CCOC3(COC3)[C@H]2C)c1 [Example 1.15] | 332 | 702 | 75 | 26200 | 79 | –
C#Cc1cnc(O[C@H]2C[C@@H](C(=O)O)N(c3nc(C(F)(F)Cl)nc4c3oc3ccccc34)C2)c(N2CCOC3(COC3)[C@@H]2C)c1 [Example 1.16] | 7 | 23 | 3 | 15000 | 2209 | –
C#Cc1cnc(O[C@H]2C[C@@H](C(=O)O)N(c3nc(C(F)(F)C(F)(F)F)nc4c3oc3ccccc34)C2)c(N2CCOC3(COC3)[C@@H]2C)c1 [Example 1.17] | 154 | 305 | 17 | > 16600 | >108 | –
C[C@H]1CN(C#N)CCN1c1cc(Br)cnc1O[C@H]1C[C@@H](C(=O)O)N(c2nc(C(F)F)nc3c2oc2ccccc23)C1 [Example 1.18] | 239 | 226 | 4 | 6510 | 27 | –
C#Cc1cnc(O[C@H]2C[C@@H](C(=O)O)N(c3nc(C(F)F)nc4c3oc3ccccc34)C2)c(N2CCCC[C@@H]2C)c1 [Example 1.19] | 699 | 667 | 4 | > 16600 | >24 | –
C#Cc1cnc(O[C@H]2C[C@@H](C(=O)O)N(c3nc(C(F)F)nc4c3oc3ccccc34)C2)c(N2CCC3(C[C@@H]2C)N=N3)c1 [Example 1.20] | 796 | 670 | 2 | > 16600 | >21 | –
C[C@@H]1N(c2cc(Cl)cnc2O[C@H]2C[C@@H](C(=O)O)N(c3nc(C(F)F)nc4c3oc3ccccc34)C2)CCCC12COC2 [Example 1.21] | 85 | 46 | 4 | 14800 | 175 | –
C#Cc1cnc(O[C@H]2C[C@@H](C(=O)O)N(c3nc(C(F)(F)F)nc4c3oc3ccccc34)C2)c(N2CCCC3(COC3)[C@@H]2C)c1 [Example 1.22] | 21 | 29 | 5 | 7640 | 355 | –
C#Cc1cnc(O[C@H]2C[C@@H](C(=O)O)N(c3nc(C(F)F)nc4c3oc3ccccc34)C2)c(N2CCCC3(COC3)[C@@H]2C)c1 [Example 1.23] | 10 | 12 | 4 | 10900 | 1134 | –
C[C@H]1COC[C@H](C)N1c1cc(Br)cnc1O[C@H]1C[C@@H](C(=O)O)N(c2nc(C(F)F)nc3c2oc2ccccc23)C1 [Example 1.26] | 583 | 475 | 10 | 9930 | 17 | –
C[C@H]1COCCN1c1cc(Cl)cnc1O[C@H]1C[C@@H](C(=O)O)N(c2nc(C(F)F)nc3c2oc2ccccc23)C1 [Example 1.27] | 516 | 221 | 4 | > 16600 | >32 | –
